Data taken from paper PMC9501377, “New Diarylamine KV10.1 Inhibitors and Their Anticancer Potential” (Pharmaceutics, 2022).
Values joined by “and” are separate entries in the source; they are usually repeats but may differ in a detail not shown here. Equal values may be shown once.

Legend:
hERG [1] = biological target: T1, hERG (Homo sapiens, UniProt Q12809); experiment: Two-electrode voltage-clamp on Xenopus laevis oocytes expressing hERG; type: cell-based; parameters: expressed in transfected cells; host or cells: Xenopus laevis oocytes (cRNA injection); details: voltage-clamped; for inhibition at 10 µM: human, Xenopus laevis oocytes expressing hERG, pH 7.5, 10 μM
T1 sequence (Q12809 whole entry): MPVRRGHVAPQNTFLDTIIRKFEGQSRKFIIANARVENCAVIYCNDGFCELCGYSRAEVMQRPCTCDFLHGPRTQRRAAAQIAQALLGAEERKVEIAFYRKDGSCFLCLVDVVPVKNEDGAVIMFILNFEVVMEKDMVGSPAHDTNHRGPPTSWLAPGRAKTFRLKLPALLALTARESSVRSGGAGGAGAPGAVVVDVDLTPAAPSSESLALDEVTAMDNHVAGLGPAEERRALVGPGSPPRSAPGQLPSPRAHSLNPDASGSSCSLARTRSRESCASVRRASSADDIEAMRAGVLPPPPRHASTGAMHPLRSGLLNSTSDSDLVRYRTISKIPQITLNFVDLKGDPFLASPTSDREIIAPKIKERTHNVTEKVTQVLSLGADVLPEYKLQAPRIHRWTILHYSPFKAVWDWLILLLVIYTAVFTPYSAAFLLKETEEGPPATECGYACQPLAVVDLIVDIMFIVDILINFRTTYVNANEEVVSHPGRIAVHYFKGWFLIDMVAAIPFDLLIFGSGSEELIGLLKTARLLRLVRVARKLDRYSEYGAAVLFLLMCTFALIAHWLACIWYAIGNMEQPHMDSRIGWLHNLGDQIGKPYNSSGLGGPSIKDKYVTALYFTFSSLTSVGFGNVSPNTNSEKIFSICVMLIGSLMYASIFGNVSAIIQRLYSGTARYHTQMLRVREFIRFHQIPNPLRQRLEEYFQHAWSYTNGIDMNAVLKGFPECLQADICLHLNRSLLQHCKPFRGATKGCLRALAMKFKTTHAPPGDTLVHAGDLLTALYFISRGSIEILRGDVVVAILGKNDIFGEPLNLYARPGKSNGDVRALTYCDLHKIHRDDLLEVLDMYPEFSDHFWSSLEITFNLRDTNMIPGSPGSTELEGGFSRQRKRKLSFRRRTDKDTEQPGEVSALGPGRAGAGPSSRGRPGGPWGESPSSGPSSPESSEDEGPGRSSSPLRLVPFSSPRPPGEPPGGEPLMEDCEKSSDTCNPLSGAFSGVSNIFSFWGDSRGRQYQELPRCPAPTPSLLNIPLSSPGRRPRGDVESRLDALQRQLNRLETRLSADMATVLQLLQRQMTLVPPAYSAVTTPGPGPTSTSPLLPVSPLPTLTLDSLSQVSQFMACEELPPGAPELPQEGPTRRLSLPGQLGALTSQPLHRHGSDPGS
Description: Stage V–VI oocytes were isolated by partial ovariectomy from Xenopus laevis frogs (African clawed frog). Mature female frogs were purchased from CRB Xénopes (Rennes, France) and were housed in the Aquatic Facility (KU Leuven) in compliance with the regulations of the European Union (EU) concerning the welfare of laboratory animals as declared in Directive 2010/63/EU. The use of Xenopus laevis was approved by the Animal Ethics Committee of the KU Leuven (Project nr. P186/2019). After anesthetising the frogs by a 15 min submersion in 0.1% tricaine methanesulphonate (pH 7.0), the oocytes were collected. The isolated oocytes were then washed with a 1.5 mg/mL collagenase solution for 2 h to remove the follicle layer.
Ion channels (KV10.1 and hERG) were expressed in Xenopus laevis oocytes, by linearisation of the plasmids and subsequent in vitro transcription using a commercial T7 or SP6 mMESSAGE mMACHINE transcription kit (Ambion, Carlsbad, CA, USA). Defolliculated Xenopus oocytes were then injected with 20–50 nL of the cRNA at a concentration of 1 ng/nL using a micro-injector (Drummond Scientific1, Broomall, PA, USA). The oocytes were incubated in a solution containing (in mM): NaCl, 96; KCl, 2; CaCl2, 1.8; MgCl2, 2 and HEPES, 5 (pH 7.4), supplemented with 50 mg/L gentamycin sulphate and […]. After ex vivo translation, the ion channels are correctly inserted in the cell membrane of the oocytes.
Two-electrode voltage-clamp recordings were performed at room temperature (18–22 °C) using a Geneclamp 500 amplifier (Molecular Devices, San Jose, CA, USA) controlled by a pClamp data acquisition system (Axon Instruments1, Union City, CA, USA) and using an integrated digital TEVC amplifier controlled by HiClamp, an automated Voltage-Clamp Screening System (Multi Channel Systems MCS GmbH, Reutlingen, Germany). Whole-cell currents from oocytes were recorded 1–7 days after injection. The bath solution composition was ND96 (in mM): NaCl, 96; KCl, 2; CaCl2, 1.8; MgCl2, 2 and HEPES, 5 (pH 7.5). Voltage and current electrodes were filled with a 3 M solution of KCl in H2O. Resistances of both electrodes were kept between 0.5 and 1.5 MΩ. The elicited Kv10.1 and hERG currents were filtered at 0.5 kHz and sampled at 2 kHz using a four-pole low-pass Bessel filter. Leak subtraction was performed using a p/4 protocol. Starting from a holding potential of −90 mV, currents for Kv10.1 were evoked by 1 s depolarizing pulses to 0 mV and currents for hERG were evoked by 2.5 s depolarizing prepulses to +40 mV, followed by hyperpolarizing pulses to −120 mV for 2.5 s. The concentration dependency of all compounds was assessed by measuring the current inhibition in the presence of increasing compound concentrations. To this end, a stock solution of the compounds was prepared in 100% DMSO for the sake of solubility. From this stock solution, adequate dilutions with a maximum of 0.5% DMSO were made for testing. The data of the concentration–response curves were fitted with the Hill equation: y = 100/{1 + (IC50/[compound])^h}, where y is the amplitude of the compound- induced effect, IC50 is the compound concentration at half-maximal efficacy, (compound) is the compound concentration, and h is the Hill coefficient.
All electrophysiological data are presented as means ± SEM of n ≥ 3 independent experiments unless otherwise indicated. Oocyte data were analysed using pClamp Clampfit 10.4 (Molecular Devices, Downingtown, PA, USA) and OriginPro 9 (Originlab, Northampton, MA, USA) or GraphPad Prism 8 software (GraphPad Software, Inc., San Diego, CA, USA). Patch-clamp data analysis was performed using FitMaster (HEKA Electronics), IgorPro (Wavemetrics, Inc., Lake Oswego, OR, USA) and GraphPad Prism 9 (GraphPad Software, Inc., San Diego, CA, USA). The Dunnett test and one-way ANOVA were performed to calculate the significance of the induced inhibition compared to the control (p < 0.05).

hERG [2] = biological target: T1, hERG; experiment: Whole-cell patch-clamp, hERG inhibition; type: cell-based; parameters: expressed in transfected cells; details: dose–response fit
Panc-1 cells = experiment: Cell growth by Incucyte confluence, Panc-1; type: cell-based, human; details: 48–72 h; for reduction of proliferation of Panc-1 cells: 25 µM
Method: MCF-7 (DSMZ ACC 115) and PANC-1 (DSMZ ACC 783) cells were grown as recommended by the cell supplier at 5% CO2 and 37 °C in a humidified atmosphere. For determining cell growth, cells were seeded in 96-well culture plates (Corning, Corning, NY, USA) at a density of 10^4 cells/well. After 24 h, the compounds were added diluted in medium. Six wells per condition were used. Four images of each well were collected at 1 h intervals for 48–72 h. Two biological replicates were performed. Images were acquired using an Incucyte device (Sartorius/Essen biosciences). Cell confluence was calculated using the Incucyte software on the phase contrast images. The results are expressed as percent confluence per well normalised to the value with no compounds added.

**Q.** With O=[N+]([O-])c1cc(C(F)(F)F)ccc1Nc1ccc(OCc2ccccc2)cc1 [Compound 14, N-(4-(Benzyloxy)phenyl)-2-nitro-4-(trifluoromethyl)aniline] as the molecule, how does the inhibition at 10 µM (hERG [1]) read?
**A.** The inhibition at 10 µM was 4.23%.

**Q.** Which inhibition at 10 µM (hERG [1]) does the source give for O=[N+]([O-])c1cc(C(F)(F)F)ccc1Oc1ccc(OCC(O)CN2CCOCC2)cc1 (centres unmarked) [Compound 5b, 1-Morpholino-3-(4-(2-nitro-4-(trifluoromethyl)phenoxy)phenoxy)propan-2-ol] here?
**A.** Its inhibition at 10 µM is 11.5%.

**Q.** With CN(C)CC(O)COc1ccc(Oc2ccc(C(F)(F)F)cc2[N+](=O)[O-])cc1 (centres unmarked) [Compound 6a, 1-(Dimethylamino)-3-(4-(2-nitro-4-(trifluoromethyl)phenoxy)phenoxy)propan-2-ol] as the molecule, how does the inhibition at 10 µM (hERG [1]) read?
**A.** The inhibition at 10 µM was 69.1%.

**Q.** How did the inhibition at 10 µM (hERG [1]) turn out when CN(C)CCOc1c(Cl)cc(Nc2ccc(C(F)(F)F)cc2[N+](=O)[O-])cc1Cl [Compound 18c, 3,5-Dichloro-4-(2-(dimethylamino)ethoxy)-N-(2-nitro-4-(trifluoromethyl)phenyl)aniline] was run?
**A.** The inhibition at 10 µM was 76.8%.

**Q.** What about the IC50 (hERG [1]) of the same molecule?
**A.** The IC50 was 660 ± 270 nM.

**Q.** Which inhibition at 10 µM (hERG [1]) does the source give for COC(=O)c1ccccc1Oc1ccc(OCC(O)CN2CCOCC2)cc1 (centres unmarked) [Compound 5a, Methyl 2-(4-(2-hydroxy-3-morpholinopropoxy)phenoxy)benzoate] here?
**A.** Its inhibition at 10 µM is 15%.

**Q.** With CN(C)CC(O)COc1ccc(Nc2ccc([N+](=O)[O-])cc2[N+](=O)[O-])cc1 (centres unmarked) [Compound 6d, 1-(Dimethylamino)-3-(4-((2,4-dinitrophenyl)amino)phenoxy)propan-2-ol] as the molecule, how does the inhibition at 10 µM (hERG [1]) read?
**A.** Its inhibition at 10 µM is 74.3%.

**Q.** How did the inhibition at 10 µM (hERG [1]) turn out when CCN(CC)CCOc1c(Br)cc(Nc2ccc(C(F)(F)F)cc2[N+](=O)[O-])cc1Br [Compound 17b, 3,5-Dibromo-4-(2-(diethylamino)ethoxy)-N-(2-nitro-4-(trifluoromethyl)phenyl)aniline] was run?
**A.** Its inhibition at 10 µM is 60.1%.

**Q.** Which inhibition at 10 µM (hERG [1]) does the source give for COC(=O)c1ccccc1Nc1ccc(OCC(O)CN2CCOCC2)cc1 (centres unmarked) [Compound 5d, Methyl 2-((4-(2-hydroxy-3-morpholinopropoxy)phenyl)amino)benzoate] here?
**A.** The inhibition at 10 µM was 20.4%.

**Q.** How did the inhibition at 10 µM (hERG [1]) turn out when CCN(CC)CCOc1c(Cl)cc(Nc2ccc(C(F)(F)F)cc2[N+](=O)[O-])cc1Cl [Compound 17c, 3,5-Dichloro-4-(2-(diethylamino)ethoxy)-N-(2-nitro-4-(trifluoromethyl)phenyl)aniline] was run?
**A.** The inhibition at 10 µM was 54.7%.

**Q.** With “Methyl 2-((4-(2-hydroxy-3-morpholinopropoxy)phenyl)amino)benzoate [Compound 5e]” as the molecule, how does the “% of hERG inhibition at 10 μM (Xenopus laevis oocytes)” value (hERG [1]; 10 μM) read?
**A.** Its value is 37.32% ± 13.11.

**Q.** With CN(C)CC(O)COc1ccc(NC(=O)c2ccc(C(F)(F)F)cc2[N+](=O)[O-])cc1 (centres unmarked) [Compound 6b, N-(4-(3-(Dimethylamino)-2-hydroxypropoxy)phenyl)-2-nitro-4-(trifluoromethyl)benzamide] as the molecule, how does the inhibition at 10 µM (hERG [1]) read?
**A.** Its inhibition at 10 µM is 9.83%.

**Q.** O=[N+]([O-])c1cc(C(F)(F)F)ccc1Nc1ccc(OCCN2CCOCC2)cc1 [Compound 13, N-(4-(2-Morpholinoethoxy)phenyl)-2-nitro-4-(trifluoromethyl)aniline] was tested. Which inhibition at 10 µM (hERG [1]) did it give?
**A.** Its inhibition at 10 µM is 34.7%.

**Q.** With COC(=O)c1cc(C(F)(F)F)ccc1Nc1ccc(OCC(O)CN(C)C)cc1 (centres unmarked) [Compound 6c, Methyl 2-((4-(3-(dimethylamino)-2-hydroxypropoxy)phenyl)amino)-5-(trifluoromethyl)benzoate] as the molecule, how does the inhibition at 10 µM (hERG [1]) read?
**A.** The inhibition at 10 µM was 63.7%.

**Q.** O=[N+]([O-])c1cc(C(F)(F)F)ccc1Nc1ccc(OCCN2CCCCC2)cc1 [Compound 20, 2-Nitro-N-(4-(2-(piperidin-1-yl)ethoxy)phenyl)-4-(trifluoromethyl)aniline] was tested. Which inhibition at 10 µM (hERG [1]) did it give?
**A.** Its inhibition at 10 µM is 75.6%.

**Q.** And the IC50 (hERG [1])?
**A.** The IC50 was 590 ± 10 nM.

**Q.** How did the inhibition at 10 µM (hERG [1]) turn out when O=[N+]([O-])c1cc(C(F)(F)F)ccc1Nc1ccc(OCCN2CCCC2)cc1 [Compound 19, 2-Nitro-N-(4-(2-(pyrrolidin-1-yl)ethoxy)phenyl)-4-(trifluoromethyl)aniline] was run?
**A.** Its inhibition at 10 µM is 65.9%.

**Q.** Which results are given for O=[N+]([O-])c1cc(C(F)(F)F)ccc1Nc1ccc(OCCN2CCCCCC2)cc1 [Compound 21, N-(4-(2-(Azepan-1-yl)ethoxy)phenyl)-2-nitro-4-(trifluoromethyl)aniline]?
**A.** inhibition at 10 µM (hERG [1]): 77.5 ± 5.71%; IC50 (hERG [1]): 1340 ± 320 nM

**Q.** What does the source list for CN(C)CCOc1ccc(Nc2ccc(C(F)(F)F)cc2[N+](=O)[O-])cc1 [Compound 18a, N-(4-(2-(Dimethylamino)ethoxy)phenyl)-2-nitro-4-(trifluoromethyl)aniline]?
**A.** IC50 (hERG [2]): 177 nM; inhibition at 10 µM (hERG [1]): 65.2%; IC50 (hERG [1]): 7560 ± 410 nM

**Q.** How did the inhibition at 10 µM (hERG [1]) turn out when O=C(Nc1ccc(OCC(O)CN2CCOCC2)cc1)c1ccc(C(F)(F)F)cc1[N+](=O)[O-] (centres unmarked) [Compound 5c, N-(4-(2-Hydroxy-3-morpholinopropoxy)phenyl)-2-nitro-4-(trifluoromethyl)benzamide] was run?
**A.** The inhibition at 10 µM was 21.5%.

**Q.** Which inhibition at 10 µM (hERG [1]) does the source give for CN(C)CC(O)COc1ccc(Nc2ccc(C(F)(F)F)cc2C(=O)O)cc1 (centres unmarked) [Compound 10b, 2-((4-(3-(Dimethylamino)-2-hydroxypropoxy)phenyl)amino)-5-(trifluoromethyl)benzoic acid] here?
**A.** The inhibition at 10 µM was 14.7%.

**Q.** Which “reduction of proliferation of Panc-1 cells” value (Panc-1 cells) does the source give for CN(C)CCOc1c(Br)cc(Nc2ccc(C(F)(F)F)cc2[N+](=O)[O-])cc1Br [Compound 18b, 3,5-Dibromo-4-(2-(dimethylamino)ethoxy)-N-(2-nitro-4-(trifluoromethyl)phenyl)aniline] here?
**A.** Its value is “approximately half”.

**Q.** What about the IC50 (hERG [2]) of the same molecule?
**A.** The IC50 was 4.9 nM.

**Q.** What about the inhibition at 10 µM (hERG [1]) of the same molecule?
**A.** Its inhibition at 10 µM is 66.8%.

**Q.** O=[N+]([O-])c1ccc(Nc2ccc(OCC(O)CN3CCOCC3)cc2)c([N+](=O)[O-])c1 (centres unmarked) [Compound 5f, 1-(4-((2,4-Dinitrophenyl)amino)phenoxy)-3-morpholinopropan-2-ol] was tested. Which inhibition at 10 µM (hERG [1]) did it give?
**A.** Its inhibition at 10 µM is 65.8%.

**Q.** Which results are given for CCN(CC)CCOc1ccc(Nc2ccc(C(F)(F)F)cc2[N+](=O)[O-])cc1 [Compound 17a, N-(4-(2-(Diethylamino)ethoxy)phenyl)-2-nitro-4-(trifluoromethyl)aniline]?
**A.** reduction of proliferation of Panc-1 cells (Panc-1 cells): approximately half; inhibition of growth of Panc-1 cells (Panc-1 cells; concentrations higher than 25 µM): approximately 50%; IC50 (hERG [2]): 232 nM; inhibition at 10 µM (hERG [1]): 64.5%; IC50 (hERG [1]): 2010 nM and 2000 nM

**Q.** With O=C(O)c1ccccc1Nc1ccc(OCC(O)CN2CCOCC2)cc1 (centres unmarked) [Compound 10a, 2-((4-(2-Hydroxy-3-morpholinopropoxy)phenyl)amino)benzoic acid] as the molecule, how does the inhibition at 10 µM (hERG [1]) read?
**A.** The inhibition at 10 µM was 3.42%.

**Q.** With CNCC(O)COc1ccc(Nc2ccc(C(F)(F)F)cc2[N+](=O)[O-])cc1 (centres unmarked) [Compound 15, 1-(Methylamino)-3-(4-((2-nitro-4-(trifluoromethyl)phenyl)amino)phenoxy)propan-2-ol] as the molecule, how does the inhibition at 10 µM (hERG [1]) read?
**A.** Its inhibition at 10 µM is 58.6%.
